The values below come from patent publication US20260167692A1, “POLYPEPTIDES AND RELATED SUBSTANCES AGAINST HAIR LOSS AND DERMATITIS, AND USES THEREOF” (SHENZHEN INSTITUTES OF ADVANCED TECHNOLOGY, priority 2023, published 2026).

Read-outs that look alike come from different tables or passages of the source. Where a SMILES comes first, the peptide text is derived from it. Where no end group is shown, it is not given here.

The subject of data set [1] is human primary dermal papilla cells. Particulars: 10 nM DHT, 24 hours. As for the experimental part:
A fibroblast medium was used as a medium.
24 hours after serum-starved cells were removed, human primary dermal papilla cells were treated with a high level of androgen by adding 10 nM DHT to a culture medium. Expression levels of cellular molecular markers (including 5α-dehydrogenase, AR, CD200, IL-6, BCL2, BAX, and FABP3) were detected after 24 hours. Homologous polypeptides from different species (the polypeptides from Example 7) were concurrently added for co-culture, and the expression levels of the cellular molecular markers were detected after 24 hours.

The subject of another data set is male C57BL/6 mice. Nature of the data set: Androgenetic (seborrheic) hair loss mouse model (DHT). The format is in vivo. To be noted: 28 days. As for the experimental part:
7-week-old male C57BL/6 mice were treated with application of DHT (a modeling and experimental cycle of 28 days).
Hair at a telogen phase on 2×2 cm areas of dorsa was removed, and the areas were depilated using a hair removal cream. A DHT solution (0.2%, w/v) was prepared in an ethanol solution (50%, v/v). Mice received topical application of the DHT solution (0.1 mL/cm^2) to the depilated areas, once a day, for 28 consecutive days. Mice in the other group received the polypeptide via oral gavage at a concentration of 0.5 mg/kg/day while applied with the DHT daily.

The subject of data set [2] is human primary dermal papilla cells. Kind of data set: Cortisol-induced psychological stress hair loss cell model. The format is cell-based. To be noted: 1 μM cortisol, 24 hours. As for the experimental part:
A fibroblast medium was used as a medium. […] Expression levels of cellular molecular markers (including 5α-dehydrogenase, GR, AR, CD200, IL-6, BCL2, and BAX) were detected after 24 hours.

Data set [3] relates to brain, gonad and adrenal gland tissues of male mice. Kind of data set: In vivo targeting of Cy5-labeled polypeptide in male mice (small animal imaging). Also noted: species or system mouse. To be noted: adult male mice, tail vein injection 100 μL of Cy5-labeled polypeptide, imaging after 24 hours, vs control group. How it is done: Adult male mice were intravenously injected via tail veins with the following: the Cy5-labeled polypeptide prepared in Example 2, a control polypeptide (a scrambled, irrelevant polypeptide), and a PBS. Each mouse received an injection volume of 100 μL. After 24 hours, detection was performed using a small animal imaging instrument.

Data set [4] deals with brains, ovaries, uteruses and adrenal glands of female mice. Nature of the data set: In vivo targeting of polypeptide-ICG/Cy5 probe in female mice (small animal imaging). Further details: species or system mouse. Particulars: adult female mice, tail vein injection 100 μL of ICG- or Cy5-labeled polypeptide, imaging after 24 hours, vs control group. How it is done: Adult female mice were intravenously injected via tail veins with the following: the polypeptide-ICG probe solution prepared in Example 2/Cy5-labeled polypeptide, an ICG solution (2 mM)/control polypeptide (a scrambled, irrelevant polypeptide), and a phosphate buffered saline (PBS). Each mouse received an injection volume of 100 μL. After 24 hours, detection was performed using a small animal imaging instrument.

For another data set, the target named is T1, GPR158 receptor (Homo sapiens, UniProt Q5T848).
T1 construct: expressed in transfected cells; host or cells: HeLa cell line highly expressing GPR158 (GPR158-HeLa)
T1 sequence (Q5T848 24-1215): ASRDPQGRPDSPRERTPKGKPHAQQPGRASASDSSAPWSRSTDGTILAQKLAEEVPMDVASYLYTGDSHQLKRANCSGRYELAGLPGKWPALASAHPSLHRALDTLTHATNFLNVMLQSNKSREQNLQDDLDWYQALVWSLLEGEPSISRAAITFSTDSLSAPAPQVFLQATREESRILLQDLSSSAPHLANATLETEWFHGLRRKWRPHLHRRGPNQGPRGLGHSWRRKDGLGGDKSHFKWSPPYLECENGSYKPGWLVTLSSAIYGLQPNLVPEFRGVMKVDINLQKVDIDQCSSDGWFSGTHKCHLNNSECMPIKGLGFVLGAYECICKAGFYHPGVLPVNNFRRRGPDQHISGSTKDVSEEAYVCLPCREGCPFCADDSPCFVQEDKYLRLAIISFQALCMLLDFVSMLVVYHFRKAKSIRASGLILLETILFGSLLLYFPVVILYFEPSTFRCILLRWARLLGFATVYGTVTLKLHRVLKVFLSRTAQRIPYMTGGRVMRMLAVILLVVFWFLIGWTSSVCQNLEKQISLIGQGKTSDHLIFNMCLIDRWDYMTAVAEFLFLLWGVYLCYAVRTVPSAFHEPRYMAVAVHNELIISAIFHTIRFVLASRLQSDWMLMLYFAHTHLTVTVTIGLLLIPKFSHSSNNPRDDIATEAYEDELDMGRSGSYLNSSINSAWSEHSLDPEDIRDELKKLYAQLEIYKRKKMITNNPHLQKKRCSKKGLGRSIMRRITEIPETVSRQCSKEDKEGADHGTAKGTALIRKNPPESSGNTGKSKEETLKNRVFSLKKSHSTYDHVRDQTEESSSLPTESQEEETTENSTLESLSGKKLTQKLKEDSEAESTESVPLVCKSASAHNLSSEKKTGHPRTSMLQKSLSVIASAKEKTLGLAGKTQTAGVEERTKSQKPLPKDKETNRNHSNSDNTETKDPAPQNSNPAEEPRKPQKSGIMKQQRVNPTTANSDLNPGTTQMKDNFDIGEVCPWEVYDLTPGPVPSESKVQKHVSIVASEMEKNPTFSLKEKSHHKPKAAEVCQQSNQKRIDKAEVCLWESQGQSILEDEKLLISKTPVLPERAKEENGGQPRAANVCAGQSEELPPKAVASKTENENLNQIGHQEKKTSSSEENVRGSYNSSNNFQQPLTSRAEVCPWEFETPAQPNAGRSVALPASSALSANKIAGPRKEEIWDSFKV
Kind of data set: Binding of Cy5-labeled Ocn49/Ocn19 to HeLa cells highly expressing GPR158. The format is cell-based. To be noted: Cy5-labeled polypeptide incubated with GPR158-HeLa cells at 4° C., washed with PBS, FIG. 7. As for the experimental part:
The polypeptide prepared in Example 1 was employed in this example, and a binding condition was observed via in vitro culture of the polypeptide with a Hela cell line highly expressing a GPR158 receptor.
(§1) A specific method involved that Cy5-labeled full-length human osteocalcin Ocn49, truncated human osteocalcin Ocn19 (SEQ ID NO.1), and HeLa cells highly expressing GPR158 were incubated at 4° C., and cells were subsequently washed with PBS. Polypeptides incapable of binding to the cells were considered as non-specific ligands, while polypeptides capable of binding to the cells were considered as specifically binding ligands. An interaction between the polypeptides and the receptor was verified accordingly.

Data set [5] has as its target T2, human GPR158 receptor (on HeLa cells highly expressing a GPR158 receptor) (human, UniProt Q5T848 24-1215).
T2 construct: whole, on cells; also called GPR158-HeLa cells; human GPR158 receptor cells
T2 sequence (looked up): T1 sequence (Q5T848 24-1215)
Kind of data set: Cy5-labelled polypeptide incubated at 4 C with HeLa cells highly expressing GPR158, washed with PBS, fluorescence imaging. How it is done: as §1

The mark [6] stands for this setting: topical DHT 0.2% w/v, 0.1 mL/cm^2 once a day.

`C[C@]12CCC(=O)C[C@@H]1CC[C@@H]1[C@@H]2CC[C@]2(C)[C@@H](O)CC[C@@H]12` [DHT, dihydrotestosterone]: in data set [1], the “apoptosis of hair follicle cells (Caspase-3, BCL2, BAX)” value is “increased”; the “expression level of hair follicle regression marker MMP-9” value is given as “increased”; the “expression level of hair follicle stem cell marker CD200” value is reported as “decreased”; the “expression levels of androgen receptor (AR), 5α-reductase, androgen synthesis-related enzymes (3βHSD and 17βHSD3)” value is given as “significantly increased”. In data set [1], the “expression levels of fatty acid-binding protein FABP3 and adipogenic differentiation factor PPARγ” value was “increased”; the “expression levels of inflammatory factors (TGF-β, TNF-α, and IL-6)” value is “increased”. Also, in the data set on male C57BL/6 mice (topical DHT 0.2% w/v once a day, FIG. 13), the “expression level of AR in cervicodorsal skins (immunofluorescence)” value was “significantly increased”. In addition, the “genes related to lipases, adipocyte differentiation, and lipoproteins in cervicodorsal skins” value in the data set with male C57BL/6 mice (topical DHT 0.2% w/v once a day, FIG. 14) is “significantly increased”. Moreover, in the data set on male C57BL/6 mice (setting [6]), the “skin expression level of β-catenin gene” value was “decrease”; the “skin expression levels of TGF-β, DKK1, IL-6, and AR genes” value is on record as “increase”.
On to `C[C@]12CCC(=O)C=C1CC[C@@H]1[C@@H]2[C@@H](O)C[C@@]2(C)[C@H]1CC[C@]2(O)C(=O)CO` [cortisol], for which, in data set [2], the “apoptosis of hair follicle cells (Caspase-3, BCL2, BAX)” value is “increased”; the “expression level of hair follicle regression marker MMP-9” value is “increased”; the “expression levels of STIP1 and inflammatory factors (TGF-β1 and IL-6)” value is “increased”; the “expression levels of glucocorticoid receptor (GR), androgen receptor (AR), and 5α-reductase” value was “significantly increased”. Besides, in data set [2], the “expression levels of hair growth marker GAS6 and hair follicle stem cell markers CD200 and CD133” value is “decreased”.
In the case of `CC(C)C[C@H](NC(=O)[C@@H](N)Cc1ccc(O)cc1)C(=O)NCC(=O)N[C@@H](C)C(=O)N[C@@H](CO)C(=O)N[C@H](C(=O)N1CCC[C@H]1C(=O)N[C@@H](CO)C(=O)N1CCC[C@H]1C(=O)N[C@@H](CC(=O)O)C(=O)N1CCC[C@H]1C(=O)N[C@@H](CC(C)C)C(=O)N[C@@H](CCC(=O)O)C(=O)N1CCC[C@H]1C(=O)N[C@H](C(=O)O)[C@@H](C)O)C(C)C` [mO15, YLGASVPSPDPLEPT] (H-YLGASVPSPDPLEPT-OH; N-terminus and C-terminus assumed), in data set [3], the “fluorescence signals in brain tissues (brain entry)” value is “enters the brains”; the “localization and binding in brain, gonad (testis, epididymis) and adrenal gland tissues (fluorescence signals)” value was “specific localization and binding capabilities”. In data set [4], the “fluorescence signals in brain tissues (brain entry)” value was “enters the brains”; the “localization and binding in hypothalamus, ovary and uterus, and adrenal gland tissues (fluorescence signals)” value is “specific localization and binding capabilities”.
Turning to “Ocn49: full-length human osteocalcin (YLYQWLGAPVPYPDPLEPRREVCELNPDCDELADHIGFQEAYRRFYGPV)”, in the data set with GPR158 receptor, the “binding to the GPR158 receptor” value is on record as “capable of binding to the GPR158 receptor” and the “internalization of the GPR158 receptor” value is given as “induces internalization of the GPR158 receptor”.
Regarding “YLYQWLGAPVPYPDPLEPR (listed as Homo sapiens) [Ocn19, human osteocalcin-derived peptide (truncated human osteocalcin)]”, in the data set with GPR158 receptor, the “binding to the GPR158 receptor” value was “capable of binding to the GPR158 receptor” and the “internalization of the GPR158 receptor” value is recorded as “induces internalization of the GPR158 receptor”.
In the case of YLYQWLGAPVPYPDPLEPR (not fully specified, also called human Ocn19) [truncated human osteocalcin Ocn19 (human osteocalcin-derived peptide)], the binding result in data set [5] is “binds”.
Same read-out and setting: next, YLYQWLGAPVPYPDPLEPRREVCELNPDCDELADHIGFQEAYRRFYGPV (ligand, UniProt P02818 52-100, looked up, ends and bridges not checked; also: Cy5 label, site not given here, mature; also called human Ocn49) [full-length human osteocalcin Ocn49]: “binds”.
